# Assay results from US6361758B1, “Cosolvent formulations” (Abbott Laboratories, priority 1998, dated 2002).
# Legend:
# [1] = Solubility of paracalcin in a cosolvent system; format: physicochemical; conditions: 25° C.
# Experimental: An adequate amount of paracalcin was weighed and added to 10 ml of cosolvent contained in a 10 ml stoppered glass test tube. Two samples were prepared for each cosolvent composition. The test tubes containing samples were shaken in a 25° C. reciprocal shaking water bath at 100 rpm. Upon complete dissolution, an aliquot was filtered through a 0.45 micron syringe filter and the filtrate diluted 1:1 with 50% methanol. The resulting diluted material was measured for the content of paracalcin.
# [2] = Stability of paracalcin in a cosolvent formulation; format: physicochemical; conditions: 5 μg/ml in 20% ethanol/30% propylene glycol/50% water
# Experimental: Samples of paracalcin (5 μg/ml) in 20% ethanol/30% propylene glycol/50% water were prepared for stability testing. In an appropriate vessel, water for injection to approximately 30% of final volume is added. Propylene glycol is added to the vessel with mixing. In a separate container, the specified amount of paracalcin is dissolved in a portion of the ethanol (190 proof non-beverage), which is obtained from the total volume of ethanol specified for the batch, and added to the vessel with mixing. An additional aliquot of the batch ethanol is used to rinse the container and the rinsing solution is added to the vessel with mixing. The remaining alcohol is added to the vessel with mixing. Q.s. with water for injection to final volume and mix for approximately 30 minutes. The solution is filtered through a 0.45 micron membrane and dispensed into ampuls. Each ampul is flame sealed and autoclaved to F016.
# One set of ampuls are tested (T=0) for percent paracalcin remaining in solution and served as control (i.e., 100% remaining). A second set of ampuls are stored at 40° C. and tested at 1, 2, and 3 months. A final set are stored at 30° C. and tested at 1, 2, 3, 6, 9, 12, 18, and 24 months. The results are shown in Table 2 as paracalcin remaining as a percent of control (T=0). Each time point represents 1 to 5 data points.
# [3] = system: Staphylococcus aureus, Escherichia coli, Pseudomonas aeruginosa, Candida albicans, Aspergillus niger; test: USP 23 preservative effectiveness test; format: cell-based; conditions: added to the 20% ethanol/30% PG formulation; data not shown
# Excerpt: Solutions of 20% ethanol, 30% propylene glycol, 20% ethanol/30% PG, 30ethanol/20% PG, and 40% ethanol/10% PG were passed through a 0.45 micro filter and tested by the USP 23 preservative effectiveness test as described in United States Pharmacopoeia 23-NF 18, 1995 Ed., Chapter 51, page 1681, which is incorporated herein by reference. Briefly, this involves inoculating the test solution with 10^5 to 10^6 test organisms per milliliter and then determining the number of surviving organisms after 7, 14, 21, and 28 days incubation at 20-25° C. using standard microbiological methods. Day 0 data is not required by USP 23 but was included in this study. A filtration and wash method was used to remove the inactivating agents for purposes of recovering the microorganisms, but other equivalent agents can also be validated for use. The USP test organisms include the bacteria Staphylococcus aureus, Escherichia coli, and Pseudomonas aeruginosa, a yeast (Candida albicans), and a mold (Aspergillus niger). […] The yeast and mold must not increase from the initial inoculum level. The initial inoculum level can either be calculated by knowing the stock culture concentration or by using a buffer control instead of the test solution.
compound,measurement,setting,value
"C[C@H](/C=C/[C@H](C)C(C)(C)O)[C@H]1CC[C@H]2/C(=C/C=C3C[C@@H](O)C[C@H](O)C3)CCC[C@]12C [paracalcin, 19-nor-1α,3β,25-trihydroxy-9,10-secoergosta-5,7(E),22(E)-triene]",Paracalcin concentration in cosolvent (solubility),"[1]; Ethanol 0.00, Propylene glycol 0.302, Water 0.698",0.00058 mg/mL
same,Paracalcin concentration in cosolvent (solubility),"[1]; Ethanol 0.00, Propylene glycol 0.506, Water 0.494",0.01421 mg/mL
same,Paracalcin concentration in cosolvent (solubility),"[1]; Ethanol 0.100, Propylene glycol 0.257, Water 0.643",0.00288 mg/mL
same,Paracalcin concentration in cosolvent (solubility),"[1]; Ethanol 0.199, Propylene glycol 0.207, Water 0.594",0.01594 mg/mL
same,Paracalcin concentration in cosolvent (solubility),"[1]; Ethanol 0.201, Propylene glycol 0.308, Water 0.491",0.0729 mg/mL
same,Paracalcin concentration in cosolvent (solubility),"[1]; Ethanol 0.299, Propylene glycol 0.00, Water 0.701",0.00682 mg/mL
same,Paracalcin concentration in cosolvent (solubility),"[1]; Ethanol 0.347, Propylene glycol 0.102, Water 0.551",0.11937 mg/mL
same,Paracalcin concentration in cosolvent (solubility),"[1]; Ethanol 0.498, Propylene glycol 0.00, Water 0.502",0.60163 mg/mL
same,paracalcin remaining as a percent of control (T=0),"[2]; 30° C., 0 months (Initial), autoclaved ampuls",100% of control
same,paracalcin remaining as a percent of control (T=0),"[2]; 30° C., 1 month",96% of control
same,paracalcin remaining as a percent of control (T=0),"[2]; 30° C., 2 months",96% of control
same,paracalcin remaining as a percent of control (T=0),"[2]; 30° C., 3 months",97% of control
same,paracalcin remaining as a percent of control (T=0),"[2]; 30° C., 6 months",96% of control
same,paracalcin remaining as a percent of control (T=0),"[2]; 30° C., 9 months",97% of control
same,paracalcin remaining as a percent of control (T=0),"[2]; 30° C., 12 months",100% of control
same,paracalcin remaining as a percent of control (T=0),"[2]; 30° C., 18 months",97% of control
same,paracalcin remaining as a percent of control (T=0),"[2]; 30° C., 24 months",96% of control
same,paracalcin remaining as a percent of control (T=0),"[2]; 40° C., 0 months (Initial), autoclaved ampuls",100% of control
same,paracalcin remaining as a percent of control (T=0),"[2]; 40° C., 1 month",96% of control
same,paracalcin remaining as a percent of control (T=0),"[2]; 40° C., 2 months",96% of control
same,paracalcin remaining as a percent of control (T=0),"[2]; 40° C., 3 months",98% of control
same,effect of addition of paracalcin on the preservative effect of the formulation,[3],no effect
